# What was measured:
# [1] = tested on: cell death induced by heat shock, oxidative and DNA damage stresses; conditions: 1 mM SA 24 hr before stress; WT, not in npr1-2
# Description: (§1) Chemical treatment, pathogen infection and cell death assays. For soil-grown Arabidopsis plants, SA treatment was carried out with spray at indicated concentrations. For seedlings grown vertically on solid 1/2 MS medium for 10-12 days, SA […] treatment (1 mM), with or without the proteasome inhibitor MG132 (50 μM), and protein synthesis […] inhibitor cycloheximide (100 μM) was done by submerging them in solutions for indicated periods. Unless otherwise stated, in N. benthamiana, SA treatment was done by infiltrating leaves 24 hr after agroinfiltration. SA pre-treatment of mature Arabidopsis was done by spray 24 hr before bacterial infection or cell death induction. For bacterial infections, Pseudomonas syringae pv. maculicola ES4326 carrying AvrRpt2 or AvrRpm1 effectors, and Pf Pf0-1 carrying functional AvrRps4 or non-functional AvrRps4KRVY-AAAA effectors were grown for 2 days on solid King's B medium supplemented with appropriate antibiotics. […] Bacteria were pressure infiltrated into mature leaves of three-week-old Arabidopsis plants and cell death or bacterial growth were assessed at indicated times post inoculation (hpi, hours post inoculation; dpi, days post inoculation). […]
# [2] = tested on: cell death triggered by in planta expression of the effector, AvrRpt2; conditions: SA treatment before dexamethasone induction
# Description: as §1
# ETI activated by RPP1 = test: ATR1/RPP1-induced cell death (conductivity assay); assay type: in vivo, Nicotiana benthamiana; conditions: SA/NPR1-mediated; 1 mM SA
# From the text: (§2) Chemical treatment, pathogen infection and cell death assays. […] At 2 days, the bacterial colonies were scored.
# VIGS assay. The silencing of NbNPR1 (NbNPR1-RNAi) and NbCUL3 (NbCUL3-RNAi) was done using VIGS assay performed as previously described. Ten-day-old WT N. benthamiana plants were inoculated with Agrobacteria (GV3101) carrying the helper plasmid pTRV1-LIC mixed at 1:1 with a strain carrying either pTRV2-LIC (empty vector control, E.V.), pTRV2-NbPDS (positive control), pTRV2-NbNPR1 or pTRV2-NbCUL3 vectors. Ten days later, gene silencing in the mock and SA-treated plants was verified in the systemic leaves by qPCR using gene-specific and reference gene (eIF4a) primers (Table 6). NbNPR1 silencing was additionally confirmed by analysis of NbPR1 expression. The silenced leaves were used in the standard transient expression assay by agroinfiltration using strains carrying the indicated test genes; and gene expression was assayed at 2 dpi.
# EDS1 = test: Stability (cycloheximide) and ubiquitination of EDS1; assay type: in vivo, Arabidopsis thaliana; conditions: WT
# Description: as §2
# Protein analysis and IP. Recombinant protein analysis was performed using transient expression in N. benthamiana, or stable over-expression in transgenic Arabidopsis, or expression in E. coli. Total protein extraction from plants was performed by homogenizing leaf tissue in the plant extraction buffer [50 mM Tris-HCl (pH 7.5), 150 mM NaCl, 5 mM EDTA, 0.2% Triton X-100, 0.2% Nonidet P-40] supplemented with 1 mM PMSF, 100 μM MG132, and EDTA-free protease inhibitor cocktail (Roche). For ubiquitinated protein analysis in plants, 100 μM of DUB (deubiquitinase) inhibitor (LifeSensors) and 10 mM NEM were added. Next, the lysates were cleared by centrifugation at 14,000 rpm for 15 min followed by filtering through a 0.2 μm filter. […] Pull-downs or IP experiments were done on total protein extracts by incubating protein samples in the lysis buffer overnight with indicated affinity tag or antibody conjugated to agarose or magnetic beads: GFP-trap agarose beads (Chromotek) for GFP fusions; RFP-trap agarose beads (Chromotek) for mCherry fusions; anti-HA magnetic beads (ThermoFisher) for HA tag fusions; anti-DYKDDDDK coupled magnetic agarose (ThermoFisher) for FLAG tag fusions; and glutathione magnetic agarose (ThermoFisher) for GST fusions. […]
smiles,measurement,setting,value
"O=C(O)c1ccccc1O [SA, salicylic acid]","cell death induced by heat shock, oxidative and DNA damage stresses",[1],significantly suppressed cell death
same,cell death triggered by in planta expression of AvrRpt2,[2],protect against cell death
same,ETI activated by RPP1 (effector ATR1),ETI activated by RPP1,inhibition
same,ubiquitination of EDS1,"EDS1; 1 mM SA for 6 hr, not in npr1-2 nor eds1-2",increased SA-mediated ubiquitination of EDS1
same,amount of EDS1 in the absence of new protein synthesis,"EDS1; 1 mM SA 4 hr then 100 μM cycloheximide, 16 hours co-incubation, unchanged in npr1-2",significantly decreased

# From patent publication US20230227838A1, “ENHANCED CELL SURVIVAL AGAINST BIOTIC AND ABIOTIC STRESSES THROUGH SALICYLICK ACID-INDUCED NPR1 CONDENSATES” (priority 2020, published 2023)
